In patent US9447418B2, “Pro- and anti-angiogenic treatments” (UNIVERSITY OF BRISTOL, priority 2007, dated 2016):

Columns and labels:
Format in all cases: cell-based, human
[1] = test system: VEGF terminal exon splice site selection; experiment: IGF-induced proximal splicing (PSS) in podocytes by RT-PCR and ELISA; conditions: for IGF-induced increase in PSS, effect of inhibitor: podocytes
From the text: Treatment of podocytes with IGF increases PSS as evidenced by RT-PCR and ELISA. This increase is inhibited by the PKC inhibitor BIM and the SR protein kinase inhibitor SERPIN340 (FIGS. 12 and 13).

[2] = test system: VEGF terminal exon splice site selection; experiment: Western blotting of podocyte cell lysate
Description: (§1) Proliferating Conditionally Immortalized Podocytes (PCIPs) were derived from cell lines conditionally transformed from normal human podocytes with temperature-sensitive mutant of immortalized SV-40 (Simian Virus 40) T-antigen. At the permissive temperature of 33° C. the SV-40 T-antigen is active and allows the cells to proliferate rapidly (46). PCIPs were cultured in T75 flasks (Greiner) in RPMI-1640® cell culture medium (Sigma) with 10% FBS (Foetal Bovine Serum), 1% ITS (Insulin Transferrin Selenium) (Sigma), 0.5% PSS (Penicillin Streptomycin Solution) (Sigma) and grown to 95% confluency. Then cells were split to six well plates (1×10^4 cells per well) and grown until 95% confluent.
We investigated time- and dose-dependent effects of Insulin-like Growth Factor 1 (IGF-1), Transforming Growth Factor β1 (TGF-β1) and Platelet-Derived Growth Factor (PDGF) on production of VEGF isoforms from cultured PCIPs. Twenty-four hours before treatment cultured medium was replaced with serum free RPMI-1654 medium (Sigma) containing 1% ITS (Sigma) and 0.5% PSS (Sigma). […]
Protein samples were dissolved in Laemmli buffer, boiled for 3-4 min and centrifuged for 2 min at 20,000 g to remove insoluble materials. […] The immunoreactive bands corresponding to panVEGF and VEGFxxxb in each treatment were quantified by ImageJ analysis and normalised to those of β-tubulin.

[3] = test system: VEGF terminal exon splice site selection; experiment: VEGF isoform ELISA of podocytes (PCIP) after growth factor / inhibitor treatment; conditions: for increase of VEGFxxxb protein level / increase of total VEGF protein expression: 48 h
Description: as §1
We investigated time- and dose-dependent effects of Insulin-like Growth Factor 1 (IGF-1), Transforming Growth Factor β1 (TGF-β1) and Platelet-Derived Growth Factor (PDGF) on production of VEGF isoforms from cultured PCIPs. Twenty-four hours before treatment cultured medium was replaced with serum free RPMI-1654 medium (Sigma) containing 1% ITS (Sigma) and 0.5% PSS (Sigma). Subsequently, the medium was replaced with fresh serum free RPMI-1654 medium (Sigma) containing 1% ITS (Sigma), 0.5% PSS (Sigma) and increasing concentrations of IGF-1 (Sigma), or TGF-β1 (Sigma) or 40 ng/mL PDGF (Sigma). The conditioned media were collected 24 or 48 hours after stimulation (IGF-1, TGF-β1) and 48 hours (PDGF).
(§2) Total VEGF concentrations in the neat RPE conditioned medium were measured using a standard DuoSet VEGF ELISA (R&D) according to manufacture's instruction. VEGFxxxb was determined with a similar sandwich ELISA, using for capture a monoclonal biotinylated mouse anti-human antibody raised against the terminal nine amino acids of VEGF165b (R&D Systems Cat No. MVRL56/1) and a standard curve for this assay built with recombinant human VEGF165b (R&D). This MVRL56/1 antibody is a commercially available affinity purified mouse monoclonal IgG1 antibody, that has been characterised previously (42, 54).

[4] = test system: VEGF terminal exon splice site selection; experiment: RT-PCR of podocyte mRNA for proximal (VEGFxxx) and distal (VEGFxxxb) spliced isoforms; conditions: podocytes; for TGF-β1 mediated increased intensity of the VEGFxxxb band (RT-PCR), effect of inhibitor: confirmed by Western blotting and ELISA; for TGF-β1 induced VEGFxxxb expression, effect of inhibitor: FIG. 6
Description: To confirm that the changes seen by TGF-β1 were at the mRNA level, and the effect of inhibitors acted at the mRNA level, real time polymerase chain reaction (RT-PCR) was carried out using primers that detect both proximal splice isoforms (VEGFxxx, 135 bp band) and distal spliced isoforms (VEGFxxxb, 74 bp band). […] This increase in intensity was inhibited by SB203820, but not by the p42/p44MAPK inhibitor PD98059. […] These findings were confirmed by Western blotting (FIG. 5B) and ELISA (FIG. 5C).

[5] = test system: VEGF terminal exon splice site selection; experiment: VEGF isoform ELISA of RPE cells after agonist stimulation (IGF-1, TNF-α)
Description: Human donor eyes were obtained within 10-30 hours post-mortem from Bristol Eye Bank, Bristol, United Kingdom. Choroid-RPE sheets dissected from ocular globes were fragmented in a small amount of Dulbecco's Modification of Eagle's Medium: Ham's F12 mixture (DMEM: F12) (1:1)+GlutaMAX® supplement (Gibco) and RPE cells were isolated by digestion with 0.3 mg/ml collagenase (Gibco) for 15 min at 37° C. RPE cells were initially cultured for 5 days in the presence of 2.5% v/v foetal bovine serum (FBS) (Gibco) to prevent proliferation of fibroblasts and until the cell cultures became established. After the first passage cell culture was maintained in DMEM:F12 (1:1), supplemented with 10% v/v FBS and antibiotic/antimycotic solution (Sigma). The once passaged cells were homogeneous and contained only RPE as characterized by immunhistochemistry with anti-cytokeratin monoclonal antibody (Sigma). Cultures of RPE were routinely subcultured by trypsinisation (trypsin/EDTA, Sigma). RPE cells at passage 3-4 were plated onto 12.5 cm^2 Petri dishes (Nunc) and allowed to reach 70-80% confluency.
(§3) To determine the effects of agonists the RPE cells were cultured in freshly-replaced medium in the absence of FBS for 24 hours prior to agonist stimulation. IGF-1 (Sigma) and TNF-α (Sigma) were prepared in serum-free medium and were added in the volume of 2 ml at various concentrations, as indicated in the discussion below. No changes in cell morphology were noted on visualisation of the cells after stimulation. 24 hours later conditioned media in all experimental treatments were collected, spun down to remove debris, and placed immediately into −80° C. until the enzyme-linked immuno-sorbent assay (ELISA) was performed. The RPE cells were washed 3 times with ice-cold PBS and lysed in Laemmli buffer for Western blotting.
as §2
Due to relatively low levels of VEGFxxxb found free in the supernatant of RPE cells, for VEGFxxxb ELISA total protein in conditioned medium was precipitated with trichloroacetic acid (TCA). For this purpose 250 μl ice cold 24% TCA and 6.25 μl 2% Sodium Deoxycholate were added to 700 μl conditioned medium and left on ice for 15 min. After centrifugation at 5000×g for 10 min, pellets were collected and resuspended in lysis buffer, containing: 20 mM Tris, pH7.4, 1.5% w/v Triton X-100, 150 mM NaCl, 10% w/v glycerol and protease inhibitors cocktail (Sigma). The pH in the pelleted samples was adjusted to 7.4 with 1.5M Tris (pH8.8). The total protein content in the pellet was measured in conventional manner using bicinchoninic acid (BCA) reagent (Sigma).

[6] = test system: VEGF terminal exon splice site selection; experiment: Western blotting of RPE cells after IGF-1
Description: as §3
Protein samples were dissolved in Laemmli buffer, boiled for 3-4 min and centrifuged for 2 min at 20,000 g to remove insoluble materials. 15 μg protein per lane were separated by Sodium Dodecyl Sulfate Polyacrylamide Gel Electrophoresis (SDS/PAGE) (12%) and transferred to 0.2 μm nitrocellulose membrane. […] Subsequently the membranes were incubated with secondary horseradish peroxidase (HRP) conjugated antibody, and immunoreactive bands were visualised using enhanced chemiluminescence (ECL) reagent (Pierce). […]

[7] = RT-PCR and ELISA (FIGS. 12 and 13)
[8] = podocytes, IGF-1, compared with control (FIG. 2B)

O=C(Nc1cc(C(F)(F)F)ccc1N1CCCCC1)c1ccncc1 [SERPIN340]
IGF-induced increase in PSS, effect of inhibitor [1, 7]: inhibited

bisindolyl maleimide [BIM]
IGF-induced increase in PSS, effect of inhibitor [1, 7]: inhibited
VEGF isoform favoured ([1]; summary statement): favoured VEGF165b

C[S+]([O-])c1ccc(-c2nc(-c3ccncc3)c(-c3ccc(F)cc3)[nH]2)cc1 (stereo not shown) [SB203580, reference compound]
TGF-β1 upregulation of VEGF165b by Western blotting, effect of inhibitor ([2]; podocytes (FIG. 5C)): inhibited
TGF-β effect on expression of VEGFxxxb or VEGFxxx isoforms in presence of inhibitor ([3]; podocytes (FIG. 5B)): did not increase expression
expression of VEGFxxx isoforms ([3]; podocytes treated with SB203580, below the detection limit): did not increase
VEGF165b expression ([3]; podocytes treated with SB203580, untreated 850±50 pg/mg protein (FIG. 5A)): 450 ± 80 pg/mg
TGF-β1 mediated increased intensity of the VEGFxxxb band (RT-PCR), effect of inhibitor ([4]; TGF-β1 1 nM): inhibited

TGF-β1: Transforming Growth Factor β1 (Sigma), growth factor favouring distal splice site selection
VEGF165b and VEGF121b isoforms by Western blotting ([2]; podocyte cell lysate, 0.5 and 1 nM TGF-β1 (FIG. 4B)): upregulated
fall of VEGFxxx expression levels ([3]; podocytes, 1 nM TGF-β): 70±7%
increase of VEGFxxxb protein level ([3]; podocytes, TGF-β1 0.5 nM): 2.9±1.4 fold
increase of total VEGF protein expression ([3]; podocytes, TGF-β1 0.5 nM): 2.25±0.65 fold
increase of VEGFxxxb protein level ([3]; podocytes, TGF-β1 1 nM): 7.2±4.7 fold
increase of total VEGF protein expression ([3]; podocytes, TGF-β1 1 nM): 4.63±0.61 fold
relative density of the lower, VEGFxxxb, band (RT-PCR) ([4]; TGF-β1 1 nM): increase

COc1cccc(-c2cc(=O)c3ccccc3o2)c1N [PD98059]
TGF-β1 induced VEGFxxxb expression, effect of inhibitor [4]: not affected

TNF-α
decrease of VEGFxxxb isoforms ([5]; RPE cells, 50 ng/ml TNF-α): 46±3%
mean increase of VEGFxxx isoforms ([5]; RPE cells, 50 ng/ml TNF-α, n=3): 4.5±2.0 fold
VEGFxxx isoforms ([5]; RPE cells, 50 ng/ml TNF-α, n=3, untreated 182±83): 825±366 pg/mg protein
VEGFxxxb isoforms ([5]; RPE cells, 50 ng/ml TNF-α, untreated 99±26): 42±13 pg/mg protein

IGF-1: Insulin-like Growth Factor 1 (Sigma), growth factor favouring proximal splice site selection
VEGF165b levels [3, 8]: decrease
total VEGF levels [3, 8]: significant increase
share of VEGF produced as VEGFxxxb ([5]; RPE cells after IGF-1 treatment, originally 80±32%): 5±20%
VEGFtotal ([5]; RPE cells, 100 nM IGF-1, N=6, untreated 217±112): 1656±448 pg/mg protein
VEGFxxxb ([5]; RPE cells, 100 nM IGF-1, untreated 78±12): 64±14 pg/mg protein
VEGFxxx ([5]; RPE cells, 100 nM IGF-1, untreated 138±117): 1592 pg/mg protein
proximal splice site selection (PSS) ([1]; podocytes treated with IGF, RT-PCR and ELISA (FIGS. 12 and 13)): increases
VEGF165b by Western blotting ([6]; 100 nM IGF (FIG. 3A)): downregulated
total VEGF relative to loading control by Western blotting ([6]; 100 nM IGF, β-actin loading control (FIG. 3B)): increase

CCN1/C(=C/C(C)=O)Sc2ccc(OC)cc21 [TG003]
TGF-β1 induced VEGFxxxb expression, effect of inhibitor [4]: inhibited
TGF-β1 mediated increased intensity of the VEGFxxxb band (RT-PCR), effect of inhibitor ([4]; TGF-β1 1 nM): inhibited
